Experimental data taken from PubChem BioAssay (NCI).
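Exposure lasted 48 hours, with cells grown in 96-well plates and compounds tested at five concentrations. GI50 marks 50% less growth. TGI: total growth inhibition.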

Legend:
Assay in all cases: NCI anticancer screen, dose series, 48 h
[1] = system: T-47D breast
[2] = system: 786-0 renal
[3] = system: SN12C renal
[4] = system: SK-MEL-5 melanoma
[5] = system: SK-MEL-28 melanoma
[6] = system: IGROV1 ovarian
[7] = system: HOP-62 NSCLC
[8] = system: OVCAR-5 ovarian
[9] = system: UO-31 renal
[10] = system: COLO 205 colon
[11] = system: MCF7 breast
[12] = system: SK-MEL-2 melanoma
[13] = system: HCC-2998 colon
[14] = system: SK-OV-3 ovarian
[15] = system: PC-3 prostate
[16] = system: NCI-H226 lung
[17] = system: SF-539 CNS
[18] = system: NCI-H23 lung
[19] = system: M14 melanoma
[20] = system: RPMI-8226 leukemia
[21] = system: U251 CNS
[22] = system: TK-10 renal
[23] = system: HCT-15 colon
[24] = system: HS 578T breast
[25] = system: NCI/ADR-RES ovarian
[26] = system: UACC-257 melanoma
[27] = system: MALME-3M melanoma
[28] = system: EKVX NSCLC
[29] = system: NCI-H460 lung
[30] = system: SW-620 colon
[31] = system: MDA-MB-231 breast
[32] = system: CAKI-1 renal
[33] = system: A498 renal
[34] = system: HT29 colon
[35] = system: HOP-92 NSCLC
[36] = system: K-562 leukemia
[37] = system: SNB-19 CNS
[38] = system: DU-145 prostate
[39] = system: NCI-H522 lung
[40] = system: KM12 colon
[41] = system: LOX IMVI melanoma
[42] = system: OVCAR-8 ovarian
[43] = system: OVCAR-3 ovarian
[44] = system: A549 NSCLC
[45] = system: SNB-75 CNS
[46] = system: SR leukemia
[47] = system: MDA-MB-435
[48] = system: UACC-62 melanoma
[49] = system: HCT-116 colon
[50] = system: SF-295 CNS
[51] = system: SF-268 CNS
[52] = system: CCRF-CEM leukemia
[53] = system: ACHN renal
[54] = system: RXF 393 renal
[55] = system: MOLT-4 leukemia
[56] = system: HL-60(TB) leukemia
[57] = system: BT-549 breast
[58] = system: OVCAR-4 ovarian

## CCn1c(-c2nonc2N)nc2c(C#CC(C)(C)O)nc(CN3CCCC3)cc21
[1]
  GI50: 6.84 µM
  TGI: > 25 µM
[2]
  GI50: 18.7 µM
  TGI: > 25 µM
[3]
  GI50: > 25 µM
  TGI: > 25 µM
[4]
  GI50: > 25 µM
  TGI: > 25 µM
[5]
  GI50: > 25 µM
  TGI: > 25 µM
[6]
  GI50: 9.23 µM
  TGI: > 25 µM
[7]
  GI50: > 25 µM
  TGI: > 25 µM
[8]
  GI50: > 25 µM
  TGI: > 25 µM
[9]
  GI50: > 25 µM
  TGI: > 25 µM
[10]
  GI50: > 25 µM
  TGI: > 25 µM
[11]
  GI50: 20 µM
  TGI: > 25 µM
[12]
  GI50: > 25 µM
  TGI: > 25 µM
[13]
  GI50: > 25 µM
  TGI: > 25 µM
[14]
  GI50: > 25 µM
  TGI: > 25 µM
[15]
  GI50: > 25 µM
  TGI: > 25 µM
[16]
  GI50: > 25 µM
  TGI: > 25 µM
[17]
  GI50: 16.9 µM
  TGI: > 25 µM
[18]
  GI50: > 25 µM
  TGI: > 25 µM
[19]
  GI50: > 25 µM
  TGI: > 25 µM
[20]
  GI50: > 25 µM
  TGI: > 25 µM
[21]
  GI50: > 25 µM
  TGI: > 25 µM
[22]
  GI50: 17.9 µM
  TGI: > 25 µM
[23]
  GI50: > 25 µM
  TGI: > 25 µM
[24]
  GI50: 7.39 µM
  TGI: > 25 µM
[25]
  GI50: > 25 µM
  TGI: > 25 µM
[26]
  GI50: > 25 µM
  TGI: > 25 µM
[27]
  GI50: > 25 µM
  TGI: > 25 µM
[28]
  GI50: > 25 µM
  TGI: > 25 µM
[29]
  GI50: > 25 µM
  TGI: > 25 µM
[30]
  GI50: > 25 µM
  TGI: > 25 µM
[31]
  GI50: > 25 µM
  TGI: > 25 µM
[32]
  GI50: > 25 µM
  TGI: > 25 µM
[33]
  GI50: 1.39 µM
  TGI: 14.6 µM
[34]
  GI50: > 25 µM
  TGI: > 25 µM
[35]
  GI50: > 25 µM
  TGI: > 25 µM
[36]
  GI50: > 25 µM
  TGI: > 25 µM
[37]
  GI50: > 25 µM
  TGI: > 25 µM
[38]
  GI50: > 25 µM
  TGI: > 25 µM
[39]
  GI50: 18.3 µM
  TGI: > 25 µM
[40]
  GI50: > 25 µM
  TGI: > 25 µM
[41]
  GI50: > 25 µM
  TGI: > 25 µM
[42]
  GI50: > 25 µM
  TGI: > 25 µM
[43]
  GI50: > 25 µM
  TGI: > 25 µM
[44]
  GI50: > 25 µM
  TGI: > 25 µM
[45]
  GI50: 8.29 µM
  TGI: > 25 µM
[46]
  GI50: > 25 µM
  TGI: > 25 µM
[47]
  GI50: > 25 µM
  TGI: > 25 µM
[48]
  GI50: > 25 µM
  TGI: > 25 µM
[49]
  GI50: > 25 µM
  TGI: > 25 µM
[50]
  GI50: 10.9 µM
  TGI: > 25 µM
[51]
  GI50: > 25 µM
  TGI: > 25 µM
[52]
  GI50: 20.5 µM
  TGI: > 25 µM
[53]
  GI50: > 25 µM
  TGI: > 25 µM
[54]
  GI50: 6.31 µM
  TGI: > 25 µM
[55]
  GI50: > 20.4 µM
  TGI: > 25 µM
[56]
  GI50: > 25 µM
  TGI: > 25 µM
[57]
  GI50: 18.8 µM
  TGI: > 25 µM
[58]
  GI50: > 25 µM
  TGI: > 25 µM
